Measurements as given in patent US6734139B1, “N-aryl-uracile-based herbicides” (priority 1999, dated 2004).
“And” between values parts separate entries of the source, which are not always exact repeats. Equal values may be shown once.

Assays:
Assay type in all cases: in vivo
[1] = test system: Amaranthus; test: Post-emergence test (herbicidal action, Colby): Amaranthus
[2] = test system: Galium; test: Post-emergence test (herbicidal action, Colby): Galium
[3] = test system: Setaria; test: Pre-emergence test (herbicidal action, Colby): Setaria
[4] = test system: Chenopodium; test: Pre-emergence test (herbicidal action, Colby): Chenopodium
[5] = test system: Cassia; test: Pre-emergence test (herbicidal action, Colby): Cassia
[6] = test system: Ipomoea; test: Pre-emergence test (herbicidal action, Colby): Ipomoea
[7] = test system: Alopecurus; test: Pre-emergence test (herbicidal action, Colby): Alopecurus
[8] = test system: Abutilon; test: Pre-emergence test (herbicidal action, Colby): Abutilon; settings: for pest or weed control at 30 g/ha: 30 g of a.i./ha; for pest or weed control at 30 g/ha / pest or weed control at 60 g/ha: read-out: Abutilon; for pest or weed control at 60 g/ha: 60 g of a.i./ha; for pest or weed control at 125 g/ha: 125 g of a.i./ha
[9] = test system: Eriochloa; test: Pre-emergence test (herbicidal action, Colby): Eriochloa
[10] = test system: weeds; test: Pre-emergence test (herbicidal action against weeds, Colby)
Excerpt: (§1) The expected action for a given combination of two herbicides can be calculated as follows (cf. COLBY, S. R.: “Calculating synergistic and antagonistic responses of herbicide combinations”, Weeds 15, Pages 20-22, 1967):
(§2) If the actual damage exceeds the calculated value, the combination has a superadditive effect, that is to say a synergistic effect.
The theoretically expected activity for a given combination of three herbicides can likewise be found in the literature mentioned above.
Solvent: 2 to 3 parts by weight of acetone or N,N-dimethyl-formamide
Emulsifier: 1 part by weight of alkylaryl polyglycol ether
(§3) To produce a suitable preparation of active compound, 1 part by weight of active compound is mixed with the stated amount of solvent, the stated amount of emulsifier is added and the concentrate is diluted with water to the desired concentration. Formulated products are dissolved in water and then diluted with water to the desired concentration.
(§4) The solutions of the other mixing components (active compounds or safeners) are prepared analogously. The separately prepared solutions of the various mixing components are then combined and, if appropriate, additional substances (formulation auxiliaries, additives, etc.) are added and, if appropriate, water is added to prepare the desired dilution.
Seeds of the test plants are sown in standard soil. After 24 hours, the soil is sprayed with the preparation of active compound such that the particular amount of active compound desired in each case is applied per unit area. The concentration of active compound in the spray liquor is chosen such that the particular amount of active compound desired in each case is applied in 500 litres of water per hectare. The containers with the test plants are kept in a greenhouse at controlled temperature and controlled illumination until evaluation.
(§5) After three weeks, the degree of damage to the plants is rated in % damage in comparison to the development of the untreated control. The figures denote
(§6) 0%=no effect/no damage (like untreated control)

[11] = test system: Lolium; test: Pre-emergence test (herbicidal action, Colby): Lolium
[12] = test system: Polygonum; test: Pre-emergence test (herbicidal action, Colby): Polygonum
[13] = test system: Digitaria; test: Pre-emergence test (herbicidal action, Colby): Digitaria
[14] = test system: Datura; test: Pre-emergence test (herbicidal action, Colby): Datura
[15] = test system: Echinochloa; test: Pre-emergence test (herbicidal action, Colby): Echinochloa
[16] = test system: Galium; test: Pre-emergence test (herbicidal action, Colby): Galium
[17] = test system: Bromus; test: Pre-emergence test (herbicidal action, Colby): Bromus
[18] = test system: Viola; test: Pre-emergence test (herbicidal action, Colby): Viola; settings: 125 g of a.i./ha
[19] = test system: Stellaria; test: Pre-emergence test (herbicidal action, Colby): Stellaria
[20] = test system: Matricaria; test: Pre-emergence test (herbicidal action, Colby): Matricaria; settings: 125 g of a.i./ha
[21] = test system: Solanum; test: Post-emergence test (herbicidal action, Colby): Solanum
Excerpt: as §1, §2, §3, §4, §5, §6

[22] = test system: Veronica; test: Post-emergence test (herbicidal action, Colby): Veronica
Excerpt: as §1, §2, §3, §4, §5, §6

[23] = test system: Chenopodium; test: Post-emergence test (herbicidal action, Colby): Chenopodium; settings: 60 g of a.i./ha
[24] = test system: Matricaria; test: Post-emergence test (herbicidal action, Colby): Matricaria; settings: 125 g of a.i./ha
[25] = test system: Polygonum; test: Post-emergence test (herbicidal action, Colby): Polygonum; settings: 125 g of a.i./ha
[26] = test system: Datura; test: Post-emergence test (herbicidal action, Colby): Datura
[27] = test system: Abutilon; test: Post-emergence test (herbicidal action, Colby): Abutilon; settings: 60 g of a.i./ha

O=C(O)COc1ccc(Cl)cc1Cl [2,4-D, 2,4-dichloro-phenoxyacetic acid]
Amaranthus ([1]; 86 g of a.i./ha): 30%
Galium ([2]; 86 g of a.i./ha): 0%

CC(C)c1nn(C(=O)NC(C)(C)C)c(=O)n1N [amicarbazone, 4-amino-N-(1,1-dimethyl-ethyl)-4,5-dihydro-3-(1-methyl-ethyl)-5-oxo-1H-1,2,4-triazole-1-carboxamide]
Setaria ([3]; 30 g of a.i./ha): 20%
Setaria ([3]; 60 g of a.i./ha): 20% and 30%
Chenopodium ([4]; 30 g of a.i./ha): 50%
Cassia ([5]; 30 g of a.i./ha): 70%
Ipomoea ([6]; 30 g of a.i./ha): 50%
Alopecurus ([7]; 60 g of a.i./ha): 20%
pest or weed control at 30 g/ha [8]: 20%
pest or weed control at 60 g/ha [8]: 99%
Eriochloa ([9]; 30 g of a.i./ha): 30%
Eriochloa ([9]; 60 g of a.i./ha): 70%
Cassia (pre-emergence test) ([10]; Table A22, 60 g of a.i./ha): 80
Datura (pre-emergence test) ([10]; Table A22, 125 g of a.i./ha): 50
Polygonum (pre-emergence test) ([10]; Table A22, 125 g of a.i./ha): 90
Lolium ([11]; 30 g of a.i./ha): 0%
Polygonum ([12]; 60 g of a.i./ha): 80%
Digitaria ([13]; 30 g of a.i./ha): 20%
Digitaria ([13]; 60 g of a.i./ha): 60%
Datura ([14]; 30 g of a.i./ha): 0%
Datura ([14]; 60 g of a.i./ha): 20%
Echinochloa ([15]; 60 g of a.i./ha): 0%

CSc1nnc(C(C)(C)C)c(=O)n1N [metribuzin, 4-amino-6-tert-butyl-3-methylthio-1,2,4-triazin-5(4H)-one]
Chenopodium ([4]; 60 g of a.i./ha): 50%
Ipomoea ([6]; 30 g of a.i./ha): 0%
Galium ([16]; 60 g of a.i./ha): 0%
Alopecurus ([7]; 30 g of a.i./ha): 0%
pest or weed control at 30 g/ha [8]: 80%
pest or weed control at 60 g/ha [8]: 90%
Chenopodium (pre-emergence test) ([10]; Table 23, 30 g of a.i./ha): 30
Lolium (pre-emergence test) ([10]; Table 23, 30 g of a.i./ha): 0
Setaria (pre-emergence test) ([10]; Table 23, 30 g of a.i./ha): 20
Eriochloa (pre-emergence test) ([10]; Table 23, 60 g of a.i./ha): 0
Galium (pre-emergence test) ([10]; Table 23, 60 g of a.i./ha): 20
Ipomoea (pre-emergence test) ([10]; Table 23, 60 g of a.i./ha): 0
Setaria (pre-emergence test) ([10]; Table 23, 60 g of a.i./ha): 80
Cassia (pre-emergence test) ([10]; Table A26, 60 g of a.i./ha): 80
Echinochloa (pre-emergence test) ([10]; Table A26, 60 g of a.i./ha): 30
Matricaria (pre-emergence test) ([10]; Table A26, 60 g of a.i./ha): 60
Avena (pre-emergence test) ([10]; Table A26, 125 g of a.i./ha): 40
Digitaria (pre-emergence test) ([10]; Table A26, 125 g of a.i./ha): 90
Echinochloa (pre-emergence test) ([10]; Table A26, 125 g of a.i./ha): 80
Lolium (pre-emergence test) ([10]; Table A26, 125 g of a.i./ha): 70
Matricaria (pre-emergence test) ([10]; Table A26, 125 g of a.i./ha): 70
Setaria (pre-emergence test) ([10]; Table A26, 125 g of a.i./ha): 80
Polygonum ([12]; 60 g of a.i./ha): 40%
Digitaria ([13]; 30 g of a.i./ha): 30%
Digitaria ([13]; 60 g of a.i./ha): 80%
Datura ([14]; 30 g of a.i./ha): 20%
Datura ([14]; 60 g of a.i./ha): 30%
Echinochloa ([15]; 60 g of a.i./ha): 0%
Echinochloa ([15]; 125 g of a.i./ha): 80%
Bromus ([17]; 30 g of a.i./ha): 0%

CCc1cccc(C)c1N(C(=O)CCl)[C@@H](C)COC [metolachlor, (S)-2-chloro-N-(2-ethyl-6-methyl-phenyl)-N-(2-methoxy-1-methylethyl)-acetamide]
Ipomoea ([6]; 250 g of a.i./ha): 30%
Viola [18]: 50%
pest or weed control at 125 g/ha [8]: 30%
pest or weed control at 250 g/ha ([8]; 250 g of a.i./ha): 30%
Digitaria ([13]; 250 g of a.i./ha): 90%
Stellaria ([19]; 125 g of a.i./ha): 30%
Stellaria ([19]; 250 g of a.i./ha): 80%

CC(C)N(C(=O)COc1nnc(C(F)(F)F)s1)c1ccc(F)cc1 [flufenacet, N-(4-fluoro-phenyl)-N-i-propyl-2-(5-trifluoromethyl-1,3,4-thiadiazol-2-yl-oxy)-acetamide]
Setaria ([3]; 30 g of a.i./ha): 70%
Setaria ([3]; 60 g of a.i./ha): 80% and 90%
Chenopodium ([4]; 30 g of a.i./ha): 30%
Chenopodium ([4]; 60 g of a.i./ha): 50%
Cassia ([5]; 60 g of a.i./ha): 60%
Ipomoea ([6]; 30 g of a.i./ha): 30%
Ipomoea ([6]; 60 g of a.i./ha): 30%
Ipomoea ([6]; 125 g of a.i./ha): 30%
Galium ([16]; 30 g of a.i./ha): 30%
Alopecurus ([7]; 60 g of a.i./ha): 70%
pest or weed control at 30 g/ha [8]: 20%
pest or weed control at 60 g/ha [8]: 20%
pest or weed control at 125 g/ha [8]: 20%
Eriochloa ([9]; 30 g of a.i./ha): 80%
Chenopodium (pre-emergence test) ([10]; Table 23, 30 g of a.i./ha): 30
Ipomoea (pre-emergence test) ([10]; Table 23, 30 g of a.i./ha): 50
Lolium (pre-emergence test) ([10]; Table 23, 30 g of a.i./ha): 70
Setaria (pre-emergence test) ([10]; Table 23, 30 g of a.i./ha): 70
Chenopodium (pre-emergence test) ([10]; Table 23, 60 g of a.i./ha): 50
Eriochloa (pre-emergence test) ([10]; Table 23, 60 g of a.i./ha): 90
Galium (pre-emergence test) ([10]; Table 23, 60 g of a.i./ha): 40
Setaria (pre-emergence test) ([10]; Table 23, 60 g of a.i./ha): 90
Chenopodium (pre-emergence test) ([10]; Table A21, 60 g of a.i./ha): 50
Ipomoea (pre-emergence test) ([10]; Table A21, 60 g of a.i./ha): 70
Polygonum (pre-emergence test) ([10]; Table A21, 60 g of a.i./ha): 0
Datura (pre-emergence test) ([10]; Table A21, 125 g of a.i./ha): 50
Ipomoea (pre-emergence test) ([10]; Table A21, 125 g of a.i./ha): 80
Polygonum (pre-emergence test) ([10]; Table A21, 125 g of a.i./ha): 30
Lolium ([11]; 60 g of a.i./ha): 80%
Polygonum ([12]; 30 g of a.i./ha): 20%
Polygonum ([12]; 60 g of a.i./ha): 30%
Digitaria ([13]; 30 g of a.i./ha): 80%
Digitaria ([13]; 60 g of a.i./ha): 80%
Matricaria [20]: 60%
Datura ([14]; 30 g of a.i./ha): 20%
Datura ([14]; 60 g of a.i./ha): 40%
Echinochloa ([15]; 60 g of a.i./ha): 90%
Bromus ([17]; 60 g of a.i./ha): 30%
Stellaria ([19]; 60 g of a.i./ha): 50%
Stellaria ([19]; 125 g of a.i./ha): 70%

CC(C)N.O=C(O)CNCP(=O)(O)O [glyphosate-isopropylammonium, N-phosphonomethyl-glycine (isopropylammonium salt)]
Galium ([2]; 125 g of a.i./ha): 0%

Cc1nn(-c2cc(NS(C)(=O)=O)c(Cl)cc2Cl)c(=O)n1C(F)F [sulfentrazone, 2-(2,4-dichloro-5-methylsulphonylamino-phenyl)-4-difluoromethyl-5-methyl-2,4-dihydro-3H-1,2,4-triazol-3-one]
Solanum ([21]; 60 g of a.i./ha): 0%
Solanum ([21]; 125 g of a.i./ha): 0%
Veronica ([22]; 60 g of a.i./ha): 0%
Veronica ([22]; 125 g of a.i./ha): 20%
Chenopodium [23]: 60%
Matricaria [24]: 0%
Polygonum [25]: 50%
Datura ([26]; 60 g of a.i./ha): 0%
Datura ([26]; 125 g of a.i./ha): 0%
Amaranthus ([1]; 60 g of a.i./ha): 90%
Galium ([2]; 60 g of a.i./ha): 0%
Abutilon [27]: 0%
